Tested on: DLD-1 cells (human colorectal cancer cells)
Test: Cell viability (MTS) drug combination assay, combination index
Format: cell-based
Conditions: combination with 17-AAG, CI<1 synergism
Experimental: Human colon adenocarcinoma cell line, DLD-1, and human breast adenocarcinoma cell line, SKBr-3, were obtained from American Type Culture Collection (manassas, VA). DLD-1 cells were maintained in RPMI 1640 medium supplemented with 10% fetal bovine serum, and SKBr-3 cells were cultured in McCoy's 5a medium supplemented with 10% fetal bovine serum. 17-DMAG and 17-AAG were obtained using published procedures. Other cytotoxic agents were purchased commercially from suppliers such as Sigrna Chemical Co. (St. Louis, Mo.) and Sequoia Research Products (Oxford, UK).
Cells were seeded in duplicate in 96-well microtiter plates at a density of 5,000 cells per well and allowed to attach overnight. […] Cell viability was determined using the MTS assay (Promega). […] Cell viability was determined by the MTS assay.
Synergism, additivity or antagonism was determined by median effect analysis using the combination index (CI) calculated using Calcusyn (Biosoft, Cambridge, UK). The combination index is defined as follows: CI=[D]1/[Dx]1+[D]2/[Dx]2 The quantities [D]1 and [D]2 represent the concentrations of the first and second drug, respectively, that in combination provide a response of x % in the assay. The quantities [Dx]1 and [Dx]2 represent the concentrations of the first and second drug, respectively, that when used alone provide a response of x % in the assay. […]

callystatin
CI value, 17-AAG Pre-Administration (17-AAG given 24 hours before the nuclear export inhibitor (48 hours)): 0.95 ± 0.04
CI value, 17-AAG Post-Administration (nuclear export inhibitor alone 24 hours, then 17-AAG for 48 hours): 0.81 ± 0.06
